{"source": "patent US8158657B2", "about": "“Heterocycles substituted pyridine derivatives and antifungal agent containing thereof” (Eisai R&D Management Co., Ltd., priority 2005, dated 2012)", "data": [{"tested_on": "C. albicans CAF2-1 strain", "test": "Anti-Candida activity, MIC measurement", "type": "cell-based", "settings": "CAF21STRAIN, C. albicans CAF2-1, RPMI1640, 42-48 hours at 35° C., visual inspection, read-out: Anti-Candida Activity (minimum inhibitory concentration, MIC)", "method": "(§1) For the C. albicans CAF2-1 strain, a fungal suspension from a standing culture for 48 hours at 30° C. in a Sabouraud dextrose liquid culture medium (SDB) was diluted with RPMI1640 medium to adjust a fungal suspension of 1.2×10^3 cells/mL. For the A. fumigatus Tsukuba strain, −80° C. stored strain was diluted with RPMI1640 medium to adjust to a fungal suspension of 4.5×10^3 cells/mL.\n(§2) Using a U-bottomed 96 well plate, 8 samples/plate (A to H) of sample dilution solutions were prepared. On the 2nd to 12th rows were dispensed 10 μL of dimethyl sulfoxide solution. Weighted sample was dissolved in dimethyl sulfoxide to prepare a 2.5 mg/mL solution, 20 μL of this solution was added to the first row of the prepared plate, and 12 steps of two-fold step dilutions (10 μL of solution+10 μL of dimethyl sulfoxide solution) were performed on the plate. This sample dilution solution was dispensed in the amount of 1 μL to a flat-bottomed 96 well plate for MIC measurement to prepare a sample dilution plate.\n(§3) The fungal suspension prepared in (1) was used in the amount of 99 μL/well to inoculate the flat-bottomed 96 well plate containing 1 μL/well of the test compound dilution prepared in (2), and a standing culture was carried out aerobically for 42-48 hours at 35° C.", "units": {"MIC": "µg/mL"}, "values": [{"smiles": "CNc1ccc(-c2cc(Cc3ccc(OCc4ccccc4)nc3)no2)c(N)n1", "note": "[Example 224, 3-(3-(6-Benzyloxy-pyridin-3-ylmethyl)-isoxazol-5-yl)-N^6-methyl-pyridin-2,6-diamine]", "MIC": 0.39}, {"smiles": "Nc1ncccc1-c1cc(Cc2ccc(OCc3ccccn3)c(F)c2)no1", "note": "[Example 87, 3-(3-(3-Fluoro-4-(pyridin-2-ylmethoxy)-benzyl)-isoxazol-5-yl)-pyridin-2-ylamine]", "MIC": 0.2}, {"smiles": "Nc1ccc(-c2cc(Cc3ccc(Oc4ccccc4)cn3)no2)c(N)n1", "note": "[Example 121, 3-(3-(5-Phenoxy-pyridin-2-ylmethyl)-isoxazol-5-yl)-pyridin-2,6-diamine]", "MIC": 0.39}, {"smiles": "Cc1ccc(-c2cc(Cc3ccc(COc4ccccn4)cc3)no2)cn1", "note": "[Example 190, 2-Methyl-5-(3-(4-(pyridin-2-yloxymethyl)-benzyl)-isoxazol-5-yl)-pyridine]", "MIC": 0.78}, {"smiles": "Cc1ccc(COc2ccc(Cc3cc(-c4cccnc4N)on3)cc2)nc1", "note": "[Example 42, 3-(3-(4-(5-Methyl-pyridin-2-ylmethoxy)-benzyl)-isoxazol-5-yl)-pyridin-2-ylamine]", "MIC": 0.78}, {"smiles": "Nc1ccc(-c2cc(Cc3ccc(OCc4ccccc4F)cc3)no2)c(N)n1", "note": "[Example 18, 3-(3-(4-(2-Fluoro-benzyloxy)-benzyl)-isoxazol-5-yl)-pyridin-2,6-diamine]", "MIC": 1.56}, {"smiles": "CCCCc1ccc(Cc2cc(-c3ccc(N)nc3N)on2)cc1", "note": "[Example 130, 3-(3-(4-Butyl-benzyl)-isoxazol-5-yl)-pyridin-2,6-diamine]", "MIC": 1.56}, {"smiles": "Nc1ncccc1-c1cc(Cc2ccn(Cc3ccccc3)c2)no1", "note": "[Example 57, 3-(3-(1-Benzyl-1H-pyrrol-3-ylmethyl)-isoxazol-5-yl)-pyridin-2-ylamine]", "MIC": 0.05}, {"smiles": "C#CCOc1ccc(Cc2cc(-c3ccc(N)nc3N)on2)cc1", "note": "[Example 219, 3-(3-(4-Prop-2-ynyloxy-benzyl)-isoxazol-5-yl)-pyridine-2,6-diamine]", "MIC": 3.13}, {"smiles": "Nc1ccc(-c2cc(Cc3ccc(OCc4ccncc4)cc3)no2)c(N)n1", "note": "[Example 107, 3-(3-(4-(Pyridin-4-ylmethoxy)-benzyl)-isoxazol-5-yl)-pyridin-2,6-diamine]", "MIC": 0.78}, {"smiles": "Nc1ccc(-c2cc(Cc3ccc(Oc4ccccn4)cc3)no2)c(N)n1", "note": "[Example 222, 3-(3-(4-(Pyridin-2-yloxy)-benzyl)-isoxazol-5-yl)-pyridin-2,6-diamine]", "MIC": 0.39}, {"smiles": "Nc1ccc(-c2cc(Cc3ccc(Oc4ccccc4)nc3)no2)cn1", "note": "[Example 181, 5-(3-(6-Phenoxy-pyridin-3-ylmethyl)-isoxazol-5-yl)-pyridin-2-ylamine]", "MIC": 1.56}, {"smiles": "Nc1ncccc1-c1cc(Cc2ccc(Oc3cccc(F)c3)nc2)no1", "note": "[Example 71, 3-(3-(6-(3-Fluoro-phenoxy)-pyridin-3-ylmethyl)-isoxazol-5-yl)-pyridin-2-ylamine]", "MIC": 0.2}, {"smiles": "Nc1ncccc1-c1cc(Cc2ccc(Oc3cccnc3)nc2)no1", "note": "[Example 100, 3-(3-(6-(Pyridin-3-yloxy)-pyridin-3-ylmethyl)-isoxazol-5-yl)-pyrindin-2-ylamine]", "MIC": 3.13}, {"smiles": "c1ccc(COc2ccc(Cc3cc(-c4cccnc4)on3)cc2)nc1", "note": "[Example 203, 3-(3-(4-(Pyridin-2-ylmethoxy)-benzyl)-isoxazol-5-yl)-pyridine]", "MIC": 0.2}, {"smiles": "Nc1ccc(-c2cc(Cc3ccc(CCc4ccccn4)cc3)no2)c(N)n1", "note": "[Example 159, 3-(3-(4-(2-Pyridin-2-yl-ethyl)-benzyl)-isoxazol-5-yl)-pyridin-2,6-diamine]", "MIC": 0.78}, {"smiles": "Nc1ncccc1-c1cc(Cc2ccc(CCc3ccco3)cc2)no1", "note": "[Example 80, 3-(3-(4-(2-Furan-2-yl-ethyl)-benzyl)-isoxazol-5-yl)-pyridin-2-ylamine]", "MIC": 0.2}]}, {"tested_on": "A. fumigatus Tsukuba strain", "test": "Anti-Aspergillus activity, MIC measurement", "type": "cell-based", "settings": "RPMI1640, 42-48 hours at 35° C., visual inspection, read-out: Anti-Aspergillus Activity (minimum inhibitory concentration, MIC)", "method": "as §1, §2, §3", "units": {"MIC": "µg/mL"}, "values": [{"smiles": "CNc1ccc(-c2cc(Cc3ccc(OCc4ccccc4)nc3)no2)c(N)n1", "note": "[Example 224, 3-(3-(6-Benzyloxy-pyridin-3-ylmethyl)-isoxazol-5-yl)-N^6-methyl-pyridin-2,6-diamine]", "MIC": 0.2}, {"smiles": "Nc1ncccc1-c1cc(Cc2ccc(OCc3ccccn3)c(F)c2)no1", "note": "[Example 87, 3-(3-(3-Fluoro-4-(pyridin-2-ylmethoxy)-benzyl)-isoxazol-5-yl)-pyridin-2-ylamine]", "MIC": 0.78}, {"smiles": "Nc1ccc(-c2cc(Cc3ccc(Oc4ccccc4)cn3)no2)c(N)n1", "note": "[Example 121, 3-(3-(5-Phenoxy-pyridin-2-ylmethyl)-isoxazol-5-yl)-pyridin-2,6-diamine]", "MIC": 0.78}, {"smiles": "Cc1ccc(-c2cc(Cc3ccc(COc4ccccn4)cc3)no2)cn1", "note": "[Example 190, 2-Methyl-5-(3-(4-(pyridin-2-yloxymethyl)-benzyl)-isoxazol-5-yl)-pyridine]", "MIC": 0.78}, {"smiles": "Cc1ccc(COc2ccc(Cc3cc(-c4cccnc4N)on3)cc2)nc1", "note": "[Example 42, 3-(3-(4-(5-Methyl-pyridin-2-ylmethoxy)-benzyl)-isoxazol-5-yl)-pyridin-2-ylamine]", "MIC": 1.56}, {"smiles": "Nc1ccc(-c2cc(Cc3ccc(OCc4ccccc4F)cc3)no2)c(N)n1", "note": "[Example 18, 3-(3-(4-(2-Fluoro-benzyloxy)-benzyl)-isoxazol-5-yl)-pyridin-2,6-diamine]", "MIC": 0.78}, {"smiles": "CCCCc1ccc(Cc2cc(-c3ccc(N)nc3N)on2)cc1", "note": "[Example 130, 3-(3-(4-Butyl-benzyl)-isoxazol-5-yl)-pyridin-2,6-diamine]", "MIC": 0.2}, {"smiles": "Nc1ncccc1-c1cc(Cc2ccn(Cc3ccccc3)c2)no1", "note": "[Example 57, 3-(3-(1-Benzyl-1H-pyrrol-3-ylmethyl)-isoxazol-5-yl)-pyridin-2-ylamine]", "MIC": 0.2}, {"smiles": "C#CCOc1ccc(Cc2cc(-c3ccc(N)nc3N)on2)cc1", "note": "[Example 219, 3-(3-(4-Prop-2-ynyloxy-benzyl)-isoxazol-5-yl)-pyridine-2,6-diamine]", "MIC": 3.13}, {"smiles": "Nc1ccc(-c2cc(Cc3ccc(OCc4ccncc4)cc3)no2)c(N)n1", "note": "[Example 107, 3-(3-(4-(Pyridin-4-ylmethoxy)-benzyl)-isoxazol-5-yl)-pyridin-2,6-diamine]", "MIC": 0.78}, {"smiles": "Nc1ccc(-c2cc(Cc3ccc(Oc4ccccn4)cc3)no2)c(N)n1", "note": "[Example 222, 3-(3-(4-(Pyridin-2-yloxy)-benzyl)-isoxazol-5-yl)-pyridin-2,6-diamine]", "MIC": 0.39}, {"smiles": "Nc1ccc(-c2cc(Cc3ccc(Oc4ccccc4)nc3)no2)cn1", "note": "[Example 181, 5-(3-(6-Phenoxy-pyridin-3-ylmethyl)-isoxazol-5-yl)-pyridin-2-ylamine]", "MIC": 0.39}, {"smiles": "Nc1ncccc1-c1cc(Cc2ccc(Oc3cccc(F)c3)nc2)no1", "note": "[Example 71, 3-(3-(6-(3-Fluoro-phenoxy)-pyridin-3-ylmethyl)-isoxazol-5-yl)-pyridin-2-ylamine]", "MIC": 0.39}, {"smiles": "Nc1ncccc1-c1cc(Cc2ccc(Oc3cccnc3)nc2)no1", "note": "[Example 100, 3-(3-(6-(Pyridin-3-yloxy)-pyridin-3-ylmethyl)-isoxazol-5-yl)-pyrindin-2-ylamine]", "MIC": 6.25}, {"smiles": "c1ccc(COc2ccc(Cc3cc(-c4cccnc4)on3)cc2)nc1", "note": "[Example 203, 3-(3-(4-(Pyridin-2-ylmethoxy)-benzyl)-isoxazol-5-yl)-pyridine]", "MIC": 1.56}, {"smiles": "Nc1ccc(-c2cc(Cc3ccc(CCc4ccccn4)cc3)no2)c(N)n1", "note": "[Example 159, 3-(3-(4-(2-Pyridin-2-yl-ethyl)-benzyl)-isoxazol-5-yl)-pyridin-2,6-diamine]", "MIC": 3.13}, {"smiles": "Nc1ncccc1-c1cc(Cc2ccc(CCc3ccco3)cc2)no1", "note": "[Example 80, 3-(3-(4-(2-Furan-2-yl-ethyl)-benzyl)-isoxazol-5-yl)-pyridin-2-ylamine]", "MIC": 0.78}]}]}
